Legend:
[1] = tested on: rat ischemic acute renal injury model with unilateral nephrectomy; assay: Rat ischemic acute renal injury model with unilateral nephrectomy; assay type: in vivo; conditions: 200 mg/kg GSSSG intraperitoneal once a day x4 (day -4 to -1) before 40 min ischemia/reperfusion, versus control group
Method: GSSSG dihydrate produced by the method described in Patent Literature 1 was carefully crushed in a mortar for 10 minutes or longer. 1,333 mg (1,250 mg in terms of anhydride) of GSSSG dihydrate was weighed out. 1,333 mg of the crushed GSSSG dihydrate was added to 40 mL of a normal saline, and the mixture was stirred in a suspended state for 5 minutes. 0.25 to 0.50 g of sodium bicarbonate was added to the suspension and dissolved. This GSSSG solution was transferred to a measuring cylinder, and a normal saline was added to make up 50 mL to obtain a preparation solution (final concentration: 25 mg/mL). The obtained preparation solution was filtered with a filter (0.22 μm filter) and used as an administration sample.
In the test, 4-week old male SD rats (body weight 99 to 113 g)
were used. A 16-day preliminary breeding period was set for the obtained animals. Rats with no abnormalities in body weight change and general condition were used for grouping.
One kidney was removed from rats in which no abnormalities were observed after the preliminary breeding period by the following method. […]
The administration sample was administered into the peritoneal cavity of rats from which the right kidney was removed using a disposable polypropylene syringe with an injection needle. […] The amount of solution administered was calculated at 8 mL/kg based on the body weight on the first day of administration. […]

[2] = tested on: rat bilateral kidney simultaneous ligation ischemic acute renal injury model; assay: Rat bilateral kidney simultaneous ligation ischemic acute renal injury model; assay type: in vivo; conditions: for Blood creatinine (CRE), before administration / Blood urea nitrogen (UN), before administration: baseline, day before administration; for Blood creatinine (CRE), before administration / Blood urea nitrogen (UN), before administration / GDF-15 (growth differentiation factor), 48 hours after ischemia reperfusion / Blood creatinine (CRE), 48 hours after ischemia reperfusion / Blood urea nitrogen (UN), 48 hours after ischemia reperfusion: plasma; for GDF-15 (growth differentiation factor), 48 hours after ischemia reperfusion: ELISA, control 1532 ± 246, placebo surgery 75.2 ± 4.3; for Blood creatinine (CRE), 48 hours after ischemia reperfusion: control 2.98 ± 0.56, placebo surgery 0.24 ± 0.01; for Blood urea nitrogen (UN), 48 hours after ischemia reperfusion: control 154.6 ± 19.5, placebo surgery 14.4 ± 1.1
Method: GSSSG dihydrate produced by the method described in Patent Literature 1 was carefully crushed in a mortar for 10 minutes or longer. A required amount of GSSSG dihydrate was weighed out. 0.5 w/v % methylcellulose (hereinafter abbreviated to as MC) was added to the crushed GSSSG dihydrate to prepare a suspension at a concentration of 10 mg/mL, and used as an administration sample for a high-dose administration group. The 10 mg/mL suspension was diluted with 0.5 w/v % MC to prepare a 4 mg/mL suspension, and used as an administration sample for a low-dose administration group.
In the test, 5-week old male SD rats (body weight 136 to 154 g) were used. An 8-day preliminary breeding period was set for the obtained animals. Rats with no abnormalities in body weight change and general condition were used for grouping.
The administration method was oral administration. Forced oral administration was performed using a disposable polypropylene syringe with a metal oral gavage tube for rats. The amount of solution administered was 5 ml/kg for both the high dose group and the low dose group based on the body weight closest to that of the day of administration. Administration was performed a total of 5 times: 1 day before, 2 days before, and 3 days before the ischemia treatment was performed, 1 hour before the ischemia treatment, and 2 hours after the reperfusion treatment.
The ischemia and reperfusion treatments were performed as follows. Anesthesia was performed by intraperitoneal administration of 45 mg/kg (1 mL/kg) of pentobarbital sodium and subcutaneous administration of 1 mg/kg (1 mL/kg) of butorphanol tartrate. Both dorsal parts where the kidneys were located were shaved. Then, the animals were treated on a heater mat. The surgical site was disinfected with about 70% of an alcohol and then incised using scissors. After both kidneys of the animals in Group 2 to Group 4 in Table 3 were exposed, the renal arteries and veins of the left kidney and the right kidney in order were clamped using Klemme (clip power 120 g) for 40 minutes. During clamping, the kidney was returned to the body in order to prevent kidney desiccation. During reperfusion, it was confirmed that the blood color of the kidney was returned to normal (red), and the laparotomy wound was closed and disinfected with Isodine. In the animals of the Group 1, both kidneys were exposed, and returned to the peritoneal cavity without ischemia treatment, and the laparotomy wound was closed and disinfected with Isodine 40 minutes after incision. After suturing, the rats were returned to the original breeding cage.
On the day before administration, without anesthesia, about 0.25 mL of blood was collected from the tail vein using a heparin Na-treated capillary (DRUMMOND). The collected blood was cooled on ice and then separated using a centrifuge (4° C., 2,200×g, for 15 minutes), and the UN concentration and the CRE concentration were measured using the obtained plasma.
48 hours after the reperfusion treatment, under isoflurane anesthesia, all blood was collected from abdominal aorta, using a winged injection needle and a heparin Na-treated vacuum blood collection tube. The collected blood was cooled on ice and then separated using a centrifuge (4° C., 2,150×g, for 15 minutes), and UN, CRE and GDF-15 (Mouse/Rat GDF-15 Quantikine ELISA Kit, R&D Systems, Inc) were measured using the obtained plasma.

**Q.** Which results are given for `N[C@@H](CCC(=O)N[C@@H](CSSSC[C@H](NC(=O)CC[C@H](N)C(=O)O)C(=O)NCC(=O)O)C(=O)NCC(=O)O)C(=O)O` [GSSSG, glutathione trisulfide]?
**A.** UN value (urea nitrogen concentration in plasma) ([1]; FIG. 1): decreased; CRE value (creatinine concentration in plasma) ([1]; FIG. 2): decreased; Blood creatinine (CRE), before administration ([2]; 20 mg/kg oral group): 0.21 ± 0.00 mg/dL; Blood urea nitrogen (UN), before administration ([2]; 20 mg/kg oral group): 13.5 ± 0.5 mg/dL; GDF-15 (growth differentiation factor), 48 hours after ischemia reperfusion ([2]; 20 mg/kg oral x5): 1673 ± 595 pg/mL; Blood creatinine (CRE), 48 hours after ischemia reperfusion ([2]; 20 mg/kg oral x5): 2.29 ± 0.52 mg/dL; Blood urea nitrogen (UN), 48 hours after ischemia reperfusion ([2]; 20 mg/kg oral x5): 136.8 ± 24.6 mg/dL; therapeutic effect ([2]; 50 mg/kg oral administration group): a therapeutic effect was exhibited; GDF-15 concentration, change versus control group ([2]; 50 mg/kg oral group, 48 hours after reperfusion): slightly decreased; Blood creatinine (CRE), before administration ([2]; 50 mg/kg oral group): 0.20 ± 0.00 mg/dL; Blood urea nitrogen (UN), before administration ([2]; 50 mg/kg oral group): 11.5 ± 0.4 mg/dL; GDF-15 (growth differentiation factor), 48 hours after ischemia reperfusion ([2]; 50 mg/kg oral x5): 1327 ± 300 pg/mL; Blood creatinine (CRE), 48 hours after ischemia reperfusion ([2]; 50 mg/kg oral x5): 2.07 ± 0.45 mg/dL; Blood urea nitrogen (UN), 48 hours after ischemia reperfusion ([2]; 50 mg/kg oral x5): 106.2 ± 16.5 mg/dL; UN value, change versus control group ([2]; GSSSG administration group, 20 and 50 mg/kg oral, 48 hours after reperfusion, Table 5): decreased in a dose-dependent manner; CRE value, change versus control group ([2]; GSSSG administration group, 20 and 50 mg/kg oral, 48 hours after reperfusion, Table 6): decreased in a dose-dependent manner

Reference: patent publication US20240269223A1, “PROPHYLACTIC OR THERAPEUTIC AGENT FOR ACUTE RENAL FAILURE” (KYOWA HAKKO BIO CO., LTD., priority 2021, published 2024)
